Measurements taken from US11289729B2, “Redox flow batteries and compounds for battery application” (THE TRUSTEES OF COLUMBIA UNIVERSITY IN THE CITY OF NEW YORK, priority 2017, dated 2022).
Several values for one entry are separate records, joined by “and”; a condition that tells them apart may be missing. Equal entries are not always repeated. One block for each substance: values may come before it.

Legend:
[1] = Stability of charged spiro and cyclopropenium compounds on storage; assay type: physicochemical
Text: The state of charge on discharge was 87%. […] Additionally, the calendar fade of the molecule was improved over certain previously reported high voltage organic radicals.

[2] = Solubility / maximum concentration of the electrolytes in organic solvent
[3] = Crossover of active molecules through the cellulose dialysis membrane in an H-cell (UV-Vis); assay type: physicochemical
Protocol: The present example tested whether the membrane is amenable to large temperature excursions and to higher-voltage second generation compounds. The membrane was exposed to high (110° C.) and low (−20° C.) temperatures, as well as to strong reducing and oxidizing conditions, after which, dialysis was performed. Details are disclosed below. For example, the membrane was soaked in a solution of sodium naphthalenide (approximately −3.0 V vs Fc^0/+) and subsequently assembled an H-cell with this membrane. One chamber of the H-cell was filled with [PDI][TFSI]2 in acetonitrile (FIG. 1), while the other contained pure acetonitrile. [PDI][TFSI]2 was used for crossover experiments due to its smaller sized and strong absorption. […] Moreover, typical aqueous cells would not be operable at these extreme temperatures.
The present example next quantitatively assessed the impact of these treatments on the membrane's performance under battery operating conditions. […] To quantify the amount of crossover, UV-Vis spectra of the [Fc4] chamber was taken. […] Additionally, the low concentration cell above (FIG. 7D) was dismantled after cycling and checked for crossover. […] The key finding is that the cellulose based membrane is effective in organic solvents over long periods of time, stable to a >3 V voltage window, and stable to temperatures outside the range available for aqueous systems.
The membranes were soaked in water for 1 h before treatment. For high temperature, the membrane was rinsed with propylene carbonate, placed in propylene carbonate and heated to 110° C. overnight in a vial. For low temperature, the membrane was rinsed with acetonitrile and placed in acetonitrile in a vial in a −20° C. freezer overnight. For oxidizing conditions, the membrane was rinsed with acetonitrile and stirred in nitrosonium tetrafluoroborate (NOBF4, 0.1 M in acetonitrile) for 4 h. For reducing conditions, the membrane was rinsed with anhydrous diglyme, placed in anhydrous diglyme, and sparged for 3 h before being brought into a glove box. It was rinsed in a fresh solution of diglyme before being added to a solution of sodium naphthalenide (0.1 M in diglyme) in a glove box for 1 h. The sodium naphthalenide was a persistent dark green the entire time indicating no quenching of the reagent. A control where the membrane was only soaked in water and rinsed with acetonitrile was also performed.
Following these conditions, [PDI][TFSI]2 (20 mg) and LiPF6 (60 mg) in acetonitrile were added to one side of the H-cell. […] The blank side was colorless for all conditions except nitrosonium tetrafluoroborate, where a minimal amount of fluorescence could be seen. The control H-cell was monitored for crossover for a further 12 days, at which point the absorbance was measured by UV-visible spectroscopy and the amount determined using the molar absorptivity of [PDI][TFSI]2 (0.05% over 12 days, FIG. 10 and FIG. 11).
After these qualitative experiments, membranes treated to the same four conditions as mentioned above were brought into the glovebox in degassed anhydrous solvent and used for cycling experiments with 19 mg [PDI][TFSI]2 and 9 mg [Fc4] in 0.5M LiPF6 (FIG. 9C). The cells were run at a 1 C current (0.7 mA) for 12 cycles. At the end of the experiment, the UV-visible spectrum was taken of the [Fc4] side. […]

[4] = acetonitrile vs pure acetonitrile, stirring overnight
[5] = cycling H-cell, 1 C, 12 cycles, 0.5 M LiPF6, UV-Vis of [Fc4] side

- persistence of charged state ([1]; 3 months out of glovebox): still charged
Substance: dimethylpiperidine cyclopropenium

Substance: perylene diimide trifluoromethane sulfonimide [[PDI][TFSI]2]
- concentration accessible in acetonitrile [2]: 1 M electron
- visible crossover, NOBF4-treated membrane [3, 4]: slight fluorescence from crossover
- visible crossover, sodium naphthalenide-treated membrane [3, 4]: no detectable crossover
- crossover, control membrane ([3]; control H-cell, acetonitrile with LiPF6, over 12 days): 0.05%
- crossover, NOBF4-treated (oxidizing) membrane [3, 5]: 1.25%
- crossover, cold (−20° C.) treated membrane [3, 5]: < 0.05% and 0.032%
- crossover, hot (110° C.) treated membrane [3, 5]: < 0.05% and 0.028%
- crossover, sodium naphthalenide-treated (reducing) membrane [3, 5]: < 0.05% and 0.038%
- crossover after long-term cycling ([3]; low concentration cell dismantled after >30 days and >250 cycles): 0.2%

- degradation in charged state (1H NMR) ([1]; 1 week of charge): No degradation
Substance: spiro-ethylphthalimide [spirophthalimide]
